The test system of one assay is Human PBMCs. Kind of assay: CD3/CD28 mediated PBMC proliferation assay. Format: cell-based. The settings on record: proliferation of human PBMCs stimulated with anti-CD3 and anti-CD28, 72 hours, Cell Titer-Glo. The method, then: Inhibition of cellular ITK was assessed by measuring proliferation of PBMCs following stimulation with anti-CD3 and anti-CD28 antibodies. Individual wells of 96 well tissue culture plates were coated with 50 μL of 5 μg/mL anti-CD3 (OKT3, eBiosciences) for 2 hours at 37° C. Human PBMCs (Stemcell Technologies catalog #70025.3) were plated in 96-well plates at a final concentration of 9.2×10e5 cells/mL in complete media (RPMI, 10% heat inactivated FBS, 55 uM β-mercaptoethanol) and pre-treated with compound curves for 30 minutes at 37° C., 5% CO2. Pre-treated cells plus compounds were transferred to washed anti-CD3 coated plates. Soluble anti-CD28 (CD28.2 eBiosciences) was added to each well at a final concentration of 2 μg/mL. The cells were placed in a humidified 37° C. incubator with 5% CO2 for 72 hours and metabolic viability was measured by quantification of ATP levels with Cell Titer-Glo (Promega catalog # G9242). Controls included unstimulated cells and vehicle alone. EC50 values (50% proliferation in the presence of compound as compared to vehicle treated controls) were calculated from dose response compound curves using GraphPad Prism Software.
Background: ATP-based viability assays read luminescence as a measure of living cells.

The test system of assay [1] is Jurkat human acute T cell leukemia cells. Kind of assay: Jurkat IL-2 release assay. It is filed as cell-based. The settings on record: IL-2 release from Jurkat cells stimulated with anti-CD3 and anti-CD28, 48 hours, ELISA. As for the experimental part: Inhibition of cellular ITK was assessed by measuring release of IL-2 following stimulation with anti-CD3 and anti-CD28 antibodies. Individual wells of 96 well tissue culture plates were coated with 50 μL of 10 μg/mL anti-CD3 (OKT3, eBiosciences) for 2 hours at 37° C. Jurkat human acute T cell leukemia cells (ATCC) were plated in 96-well plates at a final concentration of 9.2×10e5 cells/mL in complete media (RPMI, 10% FBS, 1.5 g/L sodium bicarbonate, 10 mM Hepes, 1 mM sodium pyruvate, 4.5 g/L glucose) and pre-treated with compound curves for 30 minutes at 37° C., 5% CO2. Pre-treated cells plus compounds were transferred to washed anti-CD3 coated plates. Soluble anti-CD28 (CD28.2 eBiosciences) was added to each well at a final concentration of 1 μg/mL. The cells were placed in a humidified 37° C. incubator with 5% CO2 for 48 hours and IL-2 release was measured using a commercial ELISA (BD Bioscience catalog #555190). Controls included unstimulated cells and vehicle alone. EC50 values (50% IL-2 release in the presence of compound as compared to vehicle treated controls) were calculated from dose response compound curves using GraphPad Prism Software.
(In general: An ELISA detects its analyte on a solid surface through an enzyme-linked reagent.)

A further assay addresses ITK (Homo sapiens (Human), UniProt Q08881). The assay can be described thus: ITK kinase inhibition assay. The settings on record: micro-fluidic detection, 3 hours at 25° C. It is filed as biochemical. As for the experimental part:
(§1) The in vitro kinase assays were performed at Nanosyn utilizing micro-fluidic detection technology. The test compounds were serially pre-diluted in DMSO and added, by the acoustic dispensing (Labcyte® 550), directly to 384 well assay plates into 10 uL of a buffer with enzyme comprising: 100 mM HEPES, pH7.5, 5 mM MgCl2, 0.1% bovine serum albumin, 1 mM DTT, 0.01% Triton X-100 and the enzyme. Final DMSO concentration was maintained at 1% in all samples, including the controls. The reactions were initiated by addition of ATP (to the specified concentration) and the fluorescently labeled peptide substrate to a final concentration of 1 uM, and incubated for 3 hours at 25° C. Following incubation, the reactions were quenched by addition of 40 μL of termination buffer (100 mM HEPES, pH7.5, 0.01% Triton X-100, 50 mM EDTA). Terminated plates were analyzed using Caliper LabChip® 3000 microfluidic electrophoresis instrument (Caliper Life Sciences/Perkin Elmer). The enzymatic modification of the peptide substrate (phosphorylation) results in a change of net charge enabling electrophoretic separation of product from substrate. As substrate and product are separated by electrophoresis, two peaks of fluorescence are observed. Change in the relative fluorescence intensity of the substrate and product peaks was the parameter measured, reflecting enzyme activity. In the presence of inhibitor, the ratio between product and substrate is altered: signal of the product decreases, while the signal of the substrate increases. Activity in each test sample was determined as the product to sum ratio (PSR):P/(S+P), where P is the peak height of the product and S is the peak height of the FAM-cAMP substrate. For each compound, enzyme activity was measured at 12 concentrations spaced by 3× dilution intervals. Negative control samples (0%-inhibition in the absence of inhibitor, DMSO only) and positive control samples (100%-inhibition, in the absence of enzyme or in the presence of control inhibitor) were assembled in replicates of four and were used to calculate %-inhibition values in the presence of compounds. Percent inhibition (Pinh) was determined using the following equation: Pinh=(PSR0%−PSRinh)/(PSR0%−PSR100%)*100, where PSRinh is the product sum ratio in the presence of inhibitor, PSR0% is the product sum ratio in the absence of inhibitor and PSR100% is the product sum ratio in 100%-inhibition control samples. To determine IC50 values, the inhibition curves (Pinh versus inhibitor concentration) were fitted by 4 parameter sigmoid dose-response model using XLfit software (IDBS).

In another assay the target is RLK/TXK (Homo sapiens (Human), UniProt P42681). The assay can be described thus: RLK/TXK kinase inhibition assay. Format: biochemical. The settings on record: micro-fluidic detection, 3 hours at 25° C. The method, then: as §1, with “384well” for “384 well”, “(PSR): P/(S+P),” for “(PSR):P/(S+P),”

Some results are limits rather than exact numbers.

Sequence of ITK (Q08881 whole entry): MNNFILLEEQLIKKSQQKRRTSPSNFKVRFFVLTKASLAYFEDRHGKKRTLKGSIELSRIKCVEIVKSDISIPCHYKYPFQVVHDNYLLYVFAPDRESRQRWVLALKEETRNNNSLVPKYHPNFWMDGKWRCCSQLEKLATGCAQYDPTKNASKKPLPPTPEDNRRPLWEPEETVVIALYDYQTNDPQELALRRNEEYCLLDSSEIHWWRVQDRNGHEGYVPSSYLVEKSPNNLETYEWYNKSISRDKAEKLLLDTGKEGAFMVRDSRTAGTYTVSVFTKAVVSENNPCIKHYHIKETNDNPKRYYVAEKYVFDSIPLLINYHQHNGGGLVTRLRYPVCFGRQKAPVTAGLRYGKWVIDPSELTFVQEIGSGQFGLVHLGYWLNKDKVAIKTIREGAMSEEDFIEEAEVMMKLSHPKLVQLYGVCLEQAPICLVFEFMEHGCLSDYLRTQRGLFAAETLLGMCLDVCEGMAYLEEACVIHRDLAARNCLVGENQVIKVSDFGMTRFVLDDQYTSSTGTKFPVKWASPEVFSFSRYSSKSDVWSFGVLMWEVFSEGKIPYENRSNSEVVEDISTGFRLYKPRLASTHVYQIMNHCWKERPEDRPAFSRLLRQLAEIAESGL
Sequence of RLK/TXK (P42681 whole entry): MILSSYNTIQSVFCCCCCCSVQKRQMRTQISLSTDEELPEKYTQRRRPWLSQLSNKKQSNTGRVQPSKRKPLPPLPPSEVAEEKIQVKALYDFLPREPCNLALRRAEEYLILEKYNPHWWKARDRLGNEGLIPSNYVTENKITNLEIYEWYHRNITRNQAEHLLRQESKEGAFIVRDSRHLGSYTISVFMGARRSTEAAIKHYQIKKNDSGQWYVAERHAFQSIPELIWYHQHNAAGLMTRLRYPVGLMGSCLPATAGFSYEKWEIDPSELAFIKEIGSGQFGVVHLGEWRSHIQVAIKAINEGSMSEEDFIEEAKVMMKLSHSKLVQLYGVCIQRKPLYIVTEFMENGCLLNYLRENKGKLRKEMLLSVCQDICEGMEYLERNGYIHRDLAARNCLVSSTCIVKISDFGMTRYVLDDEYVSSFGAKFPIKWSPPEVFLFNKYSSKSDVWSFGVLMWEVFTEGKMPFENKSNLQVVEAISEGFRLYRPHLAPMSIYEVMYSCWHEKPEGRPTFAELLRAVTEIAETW

With `C=CC(=O)N[C@H]1CC[C@@H](n2c(NC(=O)c3ccc(C(F)F)s3)nc3cc(CN[C@@H](C)C(C)(C)C)ccc32)CC1` [Compound 3], the EC50 (as a rule, the concentration that produces a half-maximal response) was above 0.1 µM in the assay with Human PBMCs, 0.01 to 0.1 µM in assay [1], 0.01 to 0.1 µM at ITK and 0.01 to 0.1 µM on RLK/TXK.

Turning to `C=CC(=O)Nc1cccc(-n2c(NC(=O)c3ccccn3)nc3cc(CN[C@@H](C)C(C)(C)C)ccc32)c1` [Compound 27], the EC50 (in the assay with Human PBMCs; in assay [1]; on ITK; at RLK/TXK) was above 0.1 µM throughout.

As to `C=CC(=O)Nc1cccc(-n2c(NC(=O)c3cnco3)nc3cc(CN[C@@H](C)C(C)(C)C)ccc32)c1` [Compound 42], the EC50 is 0.01 to 0.1 µM in the assay on Human PBMCs, below 0.01 µM in assay [1], 0.01 to 0.1 µM on ITK and 0.01 to 0.1 µM on RLK/TXK.

Regarding `C=CC(=O)N[C@H]1CCC[C@@H](n2c(NC(=O)c3ccc(C(F)F)s3)nc3cc(CN[C@@H](C)C(C)(C)C)ccc32)C1` [Compound 68], the EC50 in the assay with Human PBMCs, at ITK and at RLK/TXK was below 0.01 µM each time.

Turning to `C=CC(=O)Nc1cccc(-n2c(NC(=O)c3nccs3)nc3cc(CN[C@@H](C)C(C)(C)C)ccc32)c1` [Compound 12], the EC50 with Human PBMCs is above 0.1 µM; in assay [1] it was above 0.1 µM; at ITK, above 0.1 µM; at RLK/TXK, 0.01 to 0.1 µM.

As to `C=CC(=O)N[C@@H]1CC[C@H](n2c(NC(=O)c3ccc(C(F)F)s3)nc3cc(CN[C@@H](C)C(C)(C)C)ccc32)C1` [Compound 18], the EC50 is 0.01 to 0.1 µM in the assay with Human PBMCs, below 0.01 µM in assay [1], below 0.01 µM at ITK and below 0.01 µM on RLK/TXK.

With `C=CC(=O)Nc1cccc(-n2c(NC(=O)c3ccc(C#N)cc3)nc3cc(CN[C@@H](C)C(C)(C)C)ccc32)c1` [Compound 11], the EC50 was 0.01 to 0.1 µM with Human PBMCs, above 0.1 µM in assay [1], below 0.01 µM at ITK and below 0.01 µM at RLK/TXK.

`C=CC(=O)N[C@@H]1CCC[C@H](n2c(NC(=O)c3ccc(C(F)F)s3)nc3cc(CN[C@@H](C)C(C)(C)C)ccc32)C1` [Compound 81]: the EC50 in the assay with Human PBMCs is 0.01 to 0.1 µM; in assay [1] it was below 0.01 µM; on ITK, below 0.01 µM; at RLK/TXK it was 0.01 to 0.1 µM.

`C=CC(=O)N[C@H]1C[C@@H](n2c(NC(=O)c3ccc(C(F)F)s3)nc3cc(CN[C@@H](C)C(C)(C)C)ccc32)C1` [Compound 1]: the EC50 in the assay with Human PBMCs was 0.01 to 0.1 µM; in assay [1] it was 0.01 to 0.1 µM; on ITK it was below 0.01 µM; on RLK/TXK, 0.01 to 0.1 µM.

Regarding `C=CC(=O)Nc1cccc(-n2c(NC(=O)c3cccnc3)nc3cc(CN[C@@H](C)C(C)(C)C)ccc32)c1` [Compound 19], the EC50 in the assay with Human PBMCs is 0.01 to 0.1 µM; in assay [1], below 0.01 µM; at ITK, below 0.01 µM; at RLK/TXK, 0.01 to 0.1 µM.

Take `C=CC(=O)N[C@H]1CC[C@@H](n2c(NC(=O)c3ccc(C(F)F)s3)nc3cc(CN[C@@H](C)C(C)(C)C)ccc32)C1` [Compound 62]: the EC50 is above 0.1 µM in the assay on Human PBMCs, 0.01 to 0.1 µM in assay [1], below 0.01 µM at ITK and 0.01 to 0.1 µM on RLK/TXK.

With `C=CC(=O)Nc1cccc(-n2c(NC(=O)c3ccncc3)nc3cc(CN[C@@H](C)C(C)(C)C)ccc32)c1` [Compound 16], the EC50 is 0.01 to 0.1 µM with Human PBMCs, 0.01 to 0.1 µM in assay [1], below 0.01 µM at ITK and below 0.01 µM at RLK/TXK.

Regarding `C=CC(=O)Nc1cccc(-n2c(NC(=O)c3ccc(C(F)F)s3)nc3cc(CN4CCOCC4)ccc32)c1` [Compound 50], the EC50 (in the assay on Human PBMCs; in assay [1]; at ITK; at RLK/TXK) was below 0.01 µM each time.

Regarding `C=CC(=O)Nc1cccc(-n2c(NC(=O)c3cncs3)nc3cc(CN[C@@H](C)C(C)(C)C)ccc32)c1` [Compound 17], the EC50 in the assay with Human PBMCs is 0.01 to 0.1 µM; in assay [1], 0.01 to 0.1 µM; on ITK, 0.01 to 0.1 µM; at RLK/TXK, below 0.01 µM.

On to `C=CC(=O)Nc1cccc(-n2c(NC(=O)c3ccc(C(F)F)s3)nc3cc(CN[C@H]4CC[C@H](O)CC4)ccc32)c1` [Compound 31], for which the EC50 (in the assay with Human PBMCs; in assay [1]; on ITK; on RLK/TXK) was below 0.01 µM throughout.

For the molecule `C=CC(=O)Nc1cccc(-n2c(NC(=O)c3ccc(C(F)F)s3)nc3cc(N(C)C(=O)[C@H](C)N4CCOCC4)ccc32)c1` [Compound 77], the EC50 is 0.01 to 0.1 µM in the assay on Human PBMCs, below 0.01 µM in assay [1], below 0.01 µM at ITK and below 0.01 µM at RLK/TXK.

For the molecule `C=CC(=O)Nc1cccc(-n2c(NC(=O)c3ccns3)nc3cc(CN[C@@H](C)C(C)(C)C)ccc32)c1` [Compound 43], the EC50 (with Human PBMCs; in assay [1]; on ITK; on RLK/TXK) was below 0.01 µM throughout.
